Source: patent US9675697B2 (THE REGENTS OF THE UNIVERSITY OF MICHIGAN, priority 2013, dated 2017)
Where two headings read alike, the source gives them in different places.

Tests used:
[1] = molecular target: BRD4 BD1 (Homo sapiens (Human), UniProt O60885); assay: FP competitive binding assay using Cpd. No. 350 as the probe
Protocol: (§3) Fluorescence Polarization (FP) competitive binding studies (see above) were carried out using the FAM labeled fluorescent probe Cpd. No. 350 to determine binding affinities of representative compounds to both BD1 and BD2 of BRD2, BRD3, and BRD4 proteins. Equilibrium dissociation constants (Id) values of Cpd. No. 350 to these six proteins were determined from protein saturation experiments by monitoring the total fluorescence polarization of mixtures composed with the fluorescent probe at a fixed concentration and proteins with increasing concentrations up to full saturation. Serial dilutions of testing protein were mixed with Cpd. No. 350 to a final volume of 200 μl in the assay buffer. […] Plates were incubated at room temperature for 30 minutes with gentle shaking to assure equilibrium. […] Kd values of Cpd.
(§4) The IC50 and Ki values of compounds were determined in a competitive binding experiment as described above. […] FP values were measured as described above. IC50 values were determined by nonlinear regression fitting of the competition curves.

[2] = molecular target: BRD2 BD1 (Homo sapiens (Human), UniProt P25440); assay: as above
Protocol: as §3, §4

[3] = molecular target: BRD2 BD2 (Homo sapiens (Human), UniProt P25440); assay: as above
Sequence of BRD2 BD2 (P25440 344-453): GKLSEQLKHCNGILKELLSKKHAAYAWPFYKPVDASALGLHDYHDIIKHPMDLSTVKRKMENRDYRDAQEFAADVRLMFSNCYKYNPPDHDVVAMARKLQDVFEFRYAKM
Protocol: as §3, §4

[4] = molecular target: BRD4 BD2 (Homo sapiens (Human), UniProt O60885); assay: as above
[5] = molecular target: BRD3 BD1 (Homo sapiens (Human), UniProt Q15059); assay: as above
Sequence of BRD3 BD1 (Q15059 34-140): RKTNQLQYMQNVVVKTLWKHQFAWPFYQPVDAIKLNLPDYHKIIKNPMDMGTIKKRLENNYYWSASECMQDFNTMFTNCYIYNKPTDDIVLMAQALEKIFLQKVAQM
Protocol: as §3, §4

[6] = molecular target: BRD3 BD2 (Homo sapiens (Human), UniProt Q15059); assay: as above
Sequence of BRD3 BD2 (Q15059 306-415): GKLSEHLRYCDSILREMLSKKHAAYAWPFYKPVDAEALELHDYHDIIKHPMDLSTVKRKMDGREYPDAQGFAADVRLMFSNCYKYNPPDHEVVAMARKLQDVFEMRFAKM
Protocol: as §3, §4

[7] = test system: leukemia MOLM-13 cell line; assay: 4-day cell viability assay, CellTiter-Glo; format: cell-based; conditions: read-out: Cell Growth Inhibition (IC50 (nM)) MOLM-13 Cell Line (CellTiter-Glo assay)
Protocol: (§1) The effect of representative BET bromodomain inhibitors on cell viability was determined in a 4-day proliferation assay. Cells were maintained in the appropriate culture medium with 10% FBS at 37° C. and an atmosphere of 5% CO2. All the cell lines were used within three months of thawing fresh vials.
(§2) Cells were seeded in 96-well flat bottom (Corning COSTAR, Corning, N.Y., cat#3595) or white opaque cell culture plates (BD Falcon, cat#353296) at a density of 3,000-10,000 cells/well in 75 μl of culture medium. Compounds were serially diluted in the appropriate medium, and 75 μl of the diluted compounds were added to the appropriate wells of the cell plate. After the addition of compounds, the cells were incubated at 37° C. in an atmosphere of 5% CO2 for 4 days. Cell viability was determined using the CellTiter-Glo® Luminescent Cell Viability Assay Kit (Promega, Madison, Wis.) for MOLM-13 cells and WST (2-(2-methoxy-4-nitrophenyl)-3-(4-nitrophenyl)-5-(2,4-disulfophenyl)-2H-tetrazolium, monosodium salt) Cell Counting-8 Kit (Dojindo Molecular Technologies, Inc., Rockville, Md.) for MDA-MB-436 cells according to the manufacturers' instructions.
For the CellTiter-Glo assay, 100 μl of CellTiter-Glo® Reagent was added to each well, and then the plates were incubated at room temperature for 10-20 minutes. The luminescent signal was measured using a Tecan Infinite M1000 multimode microplate reader (Tecan, Morrisville, N.C.). The readings were normalized to the DMSO-treated cells and the IC50 was calculated by nonlinear regression (four parameters sigmoid fitted with variable slope, least squares fit, and no constraint) analysis using the GraphPad Prism 5 software.

[8] = test system: breast cancer MDA-MB-436 cell line; assay: 4-day cell viability assay, WST; format: cell-based; conditions: read-out: Cell Growth Inhibition (IC50 (nM)) MDA-436 Cell Line (WST assay)
Protocol: as §1, §2
For the WST assay, WST-8 reagent was added to each well at a final concentration of 10% (v/v), and then the plates were incubated at 37° C. for 1-2 hours for color development. The absorbance was measured at 450 nm using a SPECTRAmax PLUS plate reader (Molecular Devices, Sunnyvale, Calif.). The readings were normalized to the DMSO-treated cells and the half maximal inhibitory concentration (IC50) was calculated by nonlinear regression (four parameters sigmoid fitted with variable slope, least squares fit, and no constraint) analysis using the GraphPad Prism 5 software (GraphPad Software, La Jolla, Calif.).

[9] = read-out: BRD4 BD1 Ki, FP, Cpd. No. 350 probe […]
[10] = read-out: BRD2 BD1 Ki, FP, Cpd. No. 350 probe […]
[11] = read-out: BRD2 BD2 Ki, FP, Cpd. No. 350 probe […]
[12] = read-out: BRD4 BD2 Ki, FP, Cpd. No. 350 probe […]
[13] = read-out: BRD3 BD1 Ki, FP, Cpd. No. 350 probe […]
[14] = read-out: BRD3 BD2 Ki, FP, Cpd. No. 350 probe […]
[15] = Homo sapiens, MOLM-13, 96 h, 4 days
[16] = Homo sapiens, MDA-MB-436, 96 h, 4 days

Sequence of BRD2 BD1 (P25440 74-180): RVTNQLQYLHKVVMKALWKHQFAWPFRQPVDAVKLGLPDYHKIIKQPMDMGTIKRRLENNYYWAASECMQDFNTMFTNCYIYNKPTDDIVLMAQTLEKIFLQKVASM

Structure (SMILES) | Ki [1, 9] [nM] | Ki [2, 10] [nM] | Ki [3, 11] [nM] | Ki [4, 12] [nM] | Ki [5, 13] [nM] | Ki [6, 14] [nM] | IC50 [7, 15] [nM] | IC50 [8, 16] [nM] | also measured
COc1cc2c(cc1-c1c(C)noc1C)[nH]c1ccnc(Cl)c12 [RX-3, 4-(1-chloro-8-methoxy-5H-pyrido[4,3-b]indol-7-yl)-3,5-dimethylisoxazole] | 305 ± 26 | 215 ± 34 | 109 ± 10 | 194 ± 24 | 144 ± 17 | 63.8 ± 6 |  |  | 
COc1cc2c(cc1-c1c(C)noc1C)[nH]c1ccnc(-c3c(-c4ccccc4)n[nH]c3C)c12 [Cpd. No. 26, 4-(8-methoxy-1-(5-methyl-3-phenyl-1H-pyrazol-4-yl)-5H-pyrido[4,3-b]indol-7-yl)-3,5-dimethylisoxazole] |  |  |  |  |  |  | 431 | 696 | 
COc1cc2c(cc1-c1c(C)noc1C)[nH]c1nc(C)nc(-c3ccc(C(=O)NC4CCN(C5COC5)CC4)c4ccccc34)c12 [Cpd. No. 197, 4-(7-(3,5-Dimethylisoxazol-4-yl)-6-methoxy-2-methyl-9H-pyrimido[4,5-b]indol-4-yl)-N-(1-(oxetan-3-yl)piperidin-4-yl)-1-naphthamide] | 17.1 | 6.2 | 3.6 | 8.9 | 10.5 | 1.3 | 17.3 | 101 | 
COc1cc2c(cc1-c1c(C)noc1C)[nH]c1nc(C)nc(-c3ccc(C(=O)NC4CCN(C)CC4)c4ccccc34)c12 [Cpd. No. 196, 4-(7-(3,5-Dimethylisoxazol-4-yl)-6-methoxy-2-methyl-9H-pyrimido[4,5-b]indol-4-yl)-N-(1-methylpiperidin-4-yl)-1-naphthamide] | 12.3 | 4.3 | 3.5 | 7 | 9.7 | 1.4 | 6.8 | 53 | 
CCc1noc(CC)c1-c1cc2[nH]c3ccnc(Cl)c3c2cc1OC [RX-45] | > 10000 |  |  | 8320 ± 3220 |  | 3440 ± 1980 |  |  | 
COc1cc2c(cc1-c1c(C)noc1C)[nH]c1nc(C)nc(-c3cc(C(=O)NC4CCN(C)CC4)[nH]c3C(C)C)c12 [Cpd. No. 211, 4-(7-(3,5-Dimethylisoxazol-4-yl)-6-methoxy-2-methyl-9H-pyrimido[4,5-b]indol-4-yl)-5-isopropyl-N-(1-methylpiperidin-4-yl)-1H-pyrrole-2-carboxamide] | 17.2 | 5.7 | 4.9 | 5.2 | 10.8 | 1.2 | 10.4 | 140 | 
COc1cc2c(cc1-c1c(C)noc1C)[nH]c1nc(C)nc(-c3cccc(C(C)(C)O)c3)c12 [Cpd. No. 183, 2-(3-(7-(3,5-Dimethylisoxazol-4-yl)-6-methoxy-2-methyl-9H-pyrimido[4,5-b]indol-4-yl)phenyl)propan-2-ol] | 7.9 | 5.2 | 8.8 | 11.7 | 6.1 | 4.7 | 20 | 93 | 
CCc1noc(C)c1-c1cc2[nH]c3ccnc(Cl)c3c2cc1OC [RX-39] | 1240 ± 549 | 1720 ± 892 | 638 ± 70 | 478 ± 69 | 668 ± 82 | 406 ± 192 |  |  | 
COc1cc2c(cc1-c1c(C)nn(C)c1C)[nH]c1ccnc(-c3c(C)nn(C)c3C)c12 [Cpd. No. 33, 8-methoxy-1,7-bis(1,3,5-trimethyl-1H-pyrazol-4-yl)-5H-pyrido[4,3-b]indole] |  |  |  |  |  |  |  |  | Ki [1]: 1726 ± 17 nM; Ki [2]: 1670 ± 448 nM; Ki [3]: 909 ± 272 nM; Ki [4]: 867 ± 107 nM; Ki [5]: 1220 ± 100 nM; Ki [6]: 348 ± 12 nM
COc1cc2c(cc1-c1c(C)noc1C)[nH]c1nc(C)nc(-c3cc(C(=O)NC4CCN(C)CC4)cc(C(C)(C)C)c3)c12 [Cpd. No. 319] |  |  |  |  |  |  |  |  | IC50 ([7]; Homo sapiens, MOLM-13, 96 h): 10 nM; IC50 ([8]; Homo sapiens, MDA-MB-436, 96 h): 67.4 nM
COc1cc2c(cc1-c1c(C)noc1C)[nH]c1nc(C)nc(-c3ccc(NC(=O)N4CCN(C)CC4)c4ccccc34)c12 [Cpd. No. 316] |  |  |  |  |  |  |  |  | IC50 ([7]; Homo sapiens, MOLM-13, 96 h): 7.4 nM; IC50 ([8]; Homo sapiens, MDA-MB-436, 96 h): 45.2 nM
COc1cc2c(cc1-c1c(C)noc1C)[nH]c1nc(C)nc(-c3cc(C(=O)NC4CCN(C5COC5)CC4)[nH]c3C(C)C)c12 [Cpd. No. 213, 4-(7-(3,5-Dimethylisoxazol-4-yl)-6-methoxy-2-methyl-9H-pyrimido[4,5-b]indol-4-yl)-5-isopropyl-N-(1-(oxetan-3-yl)piperidin-4-yl)-1H-pyrrole-2-carboxamide] | 20.8 | 10.5 | 7.1 | 6.5 | 14 | 2.2 | 48 | 225 | 
COc1cc2c(cc1-c1c(C)noc1C)[nH]c1nc(C)nc(-c3cc(C(=O)NC4CCN(C5CCOCC5)CC4)[nH]c3C(C)C)c12 [Cpd. No. 212, 4-(7-(3,5-Dimethylisoxazol-4-yl)-6-methoxy-2-methyl-9H-pyrimido[4,5-b]indol-4-yl)-5-isopropyl-N-(1-(tetrahydro-2H-pyran-4-yl)piperidin-4-yl)-1H-pyrrole-2-carboxamide] | 17 | 5.7 | 4.6 | 4.5 | 10.2 | 1 | 22 | 100 | 
COc1cc2c(cc1-c1c(C)nn(C)c1C)[nH]c1ccnc(Cl)c12 [RX-27] | 4842 ± 29 | 5450 ± 1920 | 2840 ± 574 | 1950 ± 175 | 5030 ± 1010 | 2050 ± 142 |  |  | 
CCc1onc(C)c1-c1cc2[nH]c3ccnc(Cl)c3c2cc1OC [RX-38] | 2810 ± 782 | 760 ± 240 | 1880 ± 432 | 2180 ± 132 | 703 ± 432 | 1280 ± 1070 |  |  | 
COc1cc2c(cc1-c1c(C)noc1C)[nH]c1nc(C)nc(-c3ccc(NC(=O)N4CCN(C5COC5)CC4)c4ccccc34)c12 [Cpd. No. 317] |  |  |  |  |  |  |  |  | IC50 ([7]; Homo sapiens, MOLM-13, 96 h): 31.6 nM; IC50 ([8]; Homo sapiens, MDA-MB-436, 96 h): 169 nM
COc1cc2c(cc1-c1c(C)noc1C)[nH]c1nc(C)nc(-c3cc(C(=O)NC4CCN(C5COC5)CC4)cc(C(C)(C)C)c3)c12 [Cpd. No. 322] |  |  |  |  |  |  |  |  | IC50 ([7]; Homo sapiens, MOLM-13, 96 h): 19.4 nM; IC50 ([8]; Homo sapiens, MDA-MB-436, 96 h): 63.9 nM
COc1cc2c(cc1-c1c(C)noc1C)[nH]c1nc(C)nc(-c3ccc(C(=O)N4CCN(C)CC4)c4ccccc34)c12 [Cpd. No. 207, (4-(7-(3,5-Dimethylisoxazol-4-yl)-6-methoxy-2-methyl-9H-pyrimido[4,5-b]indol-4-yl)naphthalen-1-yl)(4-methylpiperazin-1-yl)methanone] | 14.7 | 5.3 | 5.1 | 4.1 | 10 | 1.3 | 5.3 | 58.1 | 
COc1cc2c(cc1-c1c(C)noc1C)[nH]c1ccnc(-c3c(C)nn(-c4ccccc4)c3C)c12 [Cpd. No. 352, 4-(1-(3,5-dimethyl-1-phenyl-1H-pyrazol-4-yl)-8-methoxy-5H-pyrido[4,3-b]indol-7-yl)-3,5-dimethylisoxazole] | 103 ± 3 | 62.6 ± 9 | 52.9 ± 2.7 | 98.1 ± 6.1 | 31.8 ± 1.5 | 35 ± 2 |  |  | IC50 ([7]; 4 days): 751 nM; IC50 ([8]; 4 days): 724 nM
